Measured values from ChEMBL document CHEMBL1201861, “Genomics of Drug Sensitity in Cancer screening data, Wellcome Trust Sanger Institute”.

Legend:
Assay in all cases: cells
Type in all cases: functional, cell-based
Conditions in all cases: Homo sapiens
KURAMOCHI = tested on: KURAMOCHI;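 further: growth inhibition of KURAMOCHI cells, read out with a cell viability assay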
Description: SANGER: Inhibition of human KURAMOCHI cell growth in a cell viability assay.

NCI-H69 = tested on: NCI-H69;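 further: growth inhibition of the cell line, read out with a cell viability assay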
Description: SANGER: Inhibition of human NCI-H69 cell growth in a cell viability assay.

MEG-01 = tested on: MEG-01;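 further: growth inhibition of MEG-01 cells, read out by a cell viability assay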
Description: SANGER: Inhibition of human MEG-01 cell growth in a cell viability assay.

no-11 = tested on: no-11;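 further: growth inhibition of human NO-11 cells, read out with a cell viability assay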
Description: SANGER: Inhibition of human no-11 cell growth in a cell viability assay.

ATN-1 = tested on: ATN-1;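 further: growth inhibition of human ATN-1 cells, read out with a cell viability assay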
Description: SANGER: Inhibition of human ATN-1 cell growth in a cell viability assay.

DU-4475 = tested on: DU-4475
Description: SANGER: Inhibition of human DU-4475 cell growth in a cell viability assay.

CTB-1 = tested on: CTB-1
Description: SANGER: Inhibition of human CTB-1 cell growth in a cell viability assay.

A4-Fuk = tested on: A4-Fuk;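 further: growth inhibition of A4-Fuk cells, read out by a cell viability assay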
Description: SANGER: Inhibition of human A4-Fuk cell growth in a cell viability assay.

SW872 = tested on: SW872;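 further: growth inhibition of SW872 cells, read out by a viability assay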
Description: SANGER: Inhibition of human SW872 cell growth in a cell viability assay.

U-266 = tested on: U-266
Description: SANGER: Inhibition of human U-266 cell growth in a cell viability assay.

KLE = tested on: KLE;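 further: growth inhibition of human KLE cells, read out with a cell viability assay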
Description: SANGER: Inhibition of human KLE cell growth in a cell viability assay.

OMC-1 = tested on: OMC-1;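 further: growth inhibition of the OMC-1 cell line, measured by a cell viability assay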
Description: SANGER: Inhibition of human OMC-1 cell growth in a cell viability assay.

ONS-76 = tested on: ONS-76;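 further: growth inhibition of human ONS-76 cells, read out with a cell viability assay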
Description: SANGER: Inhibition of human ONS-76 cell growth in a cell viability assay.

LAN-6 = tested on: LAN-6;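 further: growth inhibition of LAN-6 cells, determined with a cell viability assay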
Description: SANGER: Inhibition of human LAN-6 cell growth in a cell viability assay.

NCI-H209 = tested on: NCI-H209;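 further: growth inhibition of human NCI-H209 cells, measured by a cell viability assay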
Description: SANGER: Inhibition of human NCI-H209 cell growth in a cell viability assay.

NCI-H1581 = tested on: NCI-H1581;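 further: cell growth inhibition read out by a viability assay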
Description: SANGER: Inhibition of human NCI-H1581 cell growth in a cell viability assay.

LS-1034 = tested on: LS-1034
Description: SANGER: Inhibition of human LS-1034 cell growth in a cell viability assay.

JVM-2 = tested on: JVM-2;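 further: growth inhibition of JVM-2 cells determined by a cell viability assay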
Description: SANGER: Inhibition of human JVM-2 cell growth in a cell viability assay.

GI-1 = tested on: GI-1;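 further: growth inhibition of human GI-1 cells, measured with a cell viability readout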
Description: SANGER: Inhibition of human GI-1 cell growth in a cell viability assay.

SW982 = tested on: SW982;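 further: growth inhibition of SW982 cells, read out with a cell viability assay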
Description: SANGER: Inhibition of human SW982 cell growth in a cell viability assay.

LC-2-ad = tested on: LC-2-ad;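 further: growth inhibition of human LC-2-ad cells, read out with a cell viability assay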
Description: SANGER: Inhibition of human LC-2-ad cell growth in a cell viability assay.

SK-MEL-1 = tested on: SK-MEL-1;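 further: growth inhibition of human SK-MEL-1 cells, read out by a cell viability assay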
Description: SANGER: Inhibition of human SK-MEL-1 cell growth in a cell viability assay.

ACN = tested on: ACN;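 further: growth inhibition of the human ACN cell line, read out via cell viability testing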
Description: SANGER: Inhibition of human ACN cell growth in a cell viability assay.

MFH-ino = tested on: MFH-ino;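 further: growth inhibition of human MFH-ino cells, read out by a cell viability assay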
Description: SANGER: Inhibition of human MFH-ino cell growth in a cell viability assay.

ES1 = tested on: ES1;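 further: growth inhibition of ES1 cells, read out with a cell viability assay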
Description: SANGER: Inhibition of human ES1 cell growth in a cell viability assay.

KM-H2 = tested on: KM-H2;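 further: growth inhibition of KM-H2 cells, read out by a cell viability assay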
Description: SANGER: Inhibition of human KM-H2 cell growth in a cell viability assay.

KNS-42 = tested on: KNS-42;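 further: growth inhibition of KNS-42 cells, read out with a cell viability assay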
Description: SANGER: Inhibition of human KNS-42 cell growth in a cell viability assay.

EW-16 = tested on: EW-16;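 further: growth inhibition of human EW-16 cells, read out as cell viability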
Description: SANGER: Inhibition of human EW-16 cell growth in a cell viability assay.

K5 = tested on: K5
Description: SANGER: Inhibition of human K5 cell growth in a cell viability assay.

KINGS-1 = tested on: KINGS-1;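 further: cell viability assay measuring suppression of KINGS-1 cell growth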
Description: SANGER: Inhibition of human KINGS-1 cell growth in a cell viability assay.

MMAC-SF = tested on: MMAC-SF;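 further: growth inhibition of human MMAC-SF cells, read out with a cell viability assay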
Description: SANGER: Inhibition of human MMAC-SF cell growth in a cell viability assay.

SK-PN-DW = tested on: SK-PN-DW;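 further: growth inhibition measured with a viability assay on these cells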
Description: SANGER: Inhibition of human SK-PN-DW cell growth in a cell viability assay.

HT = tested on: HT
Description: SANGER: Inhibition of human HT cell growth in a cell viability assay.

SJSA-1 = tested on: SJSA-1;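 further: growth inhibition of human SJSA-1 cells, read out through a cell viability measurement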
Description: SANGER: Inhibition of human SJSA-1 cell growth in a cell viability assay.

NTERA-2-cl-D1 = tested on: NTERA-2-cl-D1;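 further: inhibition of cell growth, measured with a cell viability assay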
Description: SANGER: Inhibition of human NTERA-S-cl-D1 cell growth in a cell viability assay.

J-RT3-T3-5 = tested on: J-RT3-T3-5;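 further: cell viability assay measuring growth inhibition of human J-RT3-T3-5 cells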
Description: SANGER: Inhibition of human J-RT3-T3-5 cell growth in a cell viability assay.

TGBC1TKB = tested on: TGBC1TKB;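 further: growth inhibition of TGBC1TKB cells, read out by a cell viability assay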
Description: SANGER: Inhibition of human TGBC1TKB cell growth in a cell viability assay.

COLO-824 = tested on: COLO-824
Description: SANGER: Inhibition of human COLO-824 cell growth in a cell viability assay.

697 = tested on: 697
Description: SANGER: Inhibition of human 697 cell growth in a cell viability assay.

EC-GI-10 = tested on: EC-GI-10
Description: SANGER: Inhibition of human EC-GI-10 cell growth in a cell viability assay.

K562 = tested on: K562
Description: SANGER: Inhibition of human K-562 cell growth in a cell viability assay.

GOTO = tested on: GOTO;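 further: growth inhibition of GOTO cells, read out by a cell viability assay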
Description: SANGER: Inhibition of human GOTO cell growth in a cell viability assay.

RPMI-8226 = tested on: RPMI-8226
Description: SANGER: Inhibition of human RPMI-8226 cell growth in a cell viability assay.

NMC-G1 = tested on: NMC-G1;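 further: growth inhibition of the NMC-G1 cell line, measured with a cell viability read-out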
Description: SANGER: Inhibition of human NMC-G1 cell growth in a cell viability assay.

A101D = tested on: A101D;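 further: growth inhibition of the cell line, measured with a viability assay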
Description: SANGER: Inhibition of human A101D cell growth in a cell viability assay.

TE-10 = tested on: TE-10;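 further: growth inhibition of TE-10 cells, measured by a cell viability assay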
Description: SANGER: Inhibition of human TE-10 cell growth in a cell viability assay.

SK-NEP-1 = tested on: SK-NEP-1;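 further: growth inhibition of human SK-NEP-1 cells, read out by a cell viability assay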
Description: SANGER: Inhibition of human SK-NEP-1 cell growth in a cell viability assay.

VA-ES-BJ = tested on: VA-ES-BJ;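 further: growth inhibition of the VA-ES-BJ cell line, read out by a cell viability assay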
Description: SANGER: Inhibition of human VA-ES-BJ cell growth in a cell viability assay.

BE-13 = tested on: BE-13;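 further: growth inhibition of human BE-13 cells, measured with a cell viability assay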
Description: SANGER: Inhibition of human BE-13 cell growth in a cell viability assay.

NCI-H226 = tested on: NCI-H226;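 further: cell viability read-out used to gauge growth inhibition of the cells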
Description: SANGER: Inhibition of human NCI-H226 cell growth in a cell viability assay.

MN-60 = tested on: MN-60;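 further: growth inhibition of the MN-60 cell line, determined with a cell viability assay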
Description: SANGER: Inhibition of human MN-60 cell growth in a cell viability assay.

CGTH-W-1 = tested on: CGTH-W-1;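 further: growth inhibition of human CGTH-W-1 cells measured by cell viability assay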
Description: SANGER: Inhibition of human CGTH-W-1 cell growth in a cell viability assay.

AM-38 = tested on: AM-38;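 further: growth inhibition of AM-38 cells of human origin, read out by a cell viability assay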
Description: SANGER: Inhibition of human AM-38 cell growth in a cell viability assay.

NCI-H1648 = tested on: NCI-H1648;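 further: cell viability assay measuring inhibition of NCI-H1648 cell growth, from the Sanger screening data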
Description: SANGER: Inhibition of human NCI-H1648 cell growth in a cell viability assay.

KALS-1 = tested on: KALS-1;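 further: growth inhibition of KALS-1 cells, determined with a cell viability assay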
Description: SANGER: Inhibition of human KALS-1 cell growth in a cell viability assay.

SNU-C2B = tested on: SNU-C2B;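 further: cell viability readout used to measure compound-driven suppression of SNU-C2B cell proliferation, IC50 marking half-maximal growth inhibition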
Description: SANGER: Inhibition of human SNU-C2B cell growth in a cell viability assay.

8-MG-BA = tested on: 8-MG-BA;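 further: growth inhibition of 8-MG-BA cells, read out with a cell viability assay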
Description: SANGER: Inhibition of human 8-MG-BA cell growth in a cell viability assay.

KS-1 = tested on: KS-1;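 further: growth inhibition of KS-1 cells, read out with a cell viability assay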
Description: SANGER: Inhibition of human KS-1 cell growth in a cell viability assay.

SF-268 = tested on: SF-268
Description: SANGER: Inhibition of human SF268 cell growth in a cell viability assay.

CCRF-CEM = tested on: CCRF-CEM
Description: SANGER: Inhibition of human CCRF-CEM cell growth in a cell viability assay.

TE-5 = tested on: TE-5
Description: SANGER: Inhibition of human TE-5 cell growth in a cell viability assay.

EW-1 = tested on: EW-1
Description: SANGER: Inhibition of human EW-1 cell growth in a cell viability assay.

MOLT-16 = tested on: MOLT-16
Description: SANGER: Inhibition of human MOLT-16 cell growth in a cell viability assay.

NCI-H1838 = tested on: NCI-H1838
Description: SANGER: Inhibition of human NCI-H1838 cell growth in a cell viability assay.

LOX IMVI = tested on: LOX IMVI
Description: SANGER: Inhibition of human LOXIMVI cell growth in a cell viability assay.

SCH = tested on: SCH
Description: SANGER: Inhibition of human SCH cell growth in a cell viability assay.

Measured: IC50

Cc1[nH]c(/C=C2\C(=O)Nc3ccc(S(=O)(=O)Cc4c(Cl)cccc4Cl)cc32)c(C)c1C(=O)N1CCC[C@@H]1CN1CCCC1 [PHA-665752]
359 nM: KINGS-1
not listed: SCH
> 2000 nM: all other assays above

CCCS(=O)(=O)Nc1ccc(F)c(C(=O)c2c[nH]c3ncc(Cl)cc23)c1F [PLX-4720]
385 nM: ACN
6180 nM: 8-MG-BA
686 nM: MMAC-SF
1610 nM: NCI-H209
761 nM: K5
8420 nM: SW982
3400 nM: CTB-1
74.6 nM: DU-4475
3550 nM: 697
326 nM: A101D
not listed: EC-GI-10
> 10000 nM: all other assays above
